Measurements taken from patent US6737383B1, “Herbicidal oxadiazolidines” (priority 1999, dated 2004).

Legend:
arrowleaf sida = experiment: Test C postemergence arrowleaf sida; type: in vivo, Sida rhombifolia; details: 0 to 100 scale, 0 no effect, 100 complete control
How it was run: (§1)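 Scores (0 = no effect, 100 = complete control) come from visual comparison with untreated controls after about 14–21 days. Spray formulation was a non-phytotoxic solvent mixture including surfactant; plants grew in a 60:40 sandy loam–potting mix blend.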

eastern black nightshade = experiment: Test C postemergence eastern black nightshade; type: in vivo, Solanum ptycanthum; details: 0 to 100 scale, 0 no effect, 100 complete control
How it was run: as §1

field bindweed = experiment: Test C postemergence field bindweed; type: in vivo, Convolvulus arvensis; details: 0 to 100 scale, 0 no effect, 100 complete control
How it was run: as §1

johnsongrass = experiment: Test C postemergence johnsongrass; type: in vivo, Sorghum halepense; details: 0 to 100 scale, 0 no effect, 100 complete control
How it was run: as §1

soybean = experiment: Test C postemergence soybean; type: in vivo, Glycine max; details: 0 to 100 scale, 0 no effect, 100 complete control
Protocol: (§2) Compounds evaluated in this test were formulated in a non-phytotoxic solvent mixture which included a surfactant and applied to plants that were grown for various periods of time before treatment (postemergence application). A mixture of sandy loam soil and greenhouse potting mix in a 60:40 ratio was used for the postemergence test.
(§3) Plantings of these crops and weed species were adjusted to produce plants of appropriate size for the postemergence test. All plant species were grown using normal greenhouse practices. Crop and weed species include arrowleaf sida (Sida rhombifolia), barnyardgrass (Echinochloa crus-galli), cocklebur (Xanthium strumarium), common ragweed (Ambrosia elatior), corn (Zea mays), cotton (Gossypium hirsutum), eastern black nightshade (Solanum ptycanthum), fall panicum (Panicum dichotomiflorum), field bindweed (Convolvulus arvensis), giant foxtail (Setaria faberii), hairy beggarticks (Bidens pilosa), ivyleaf morningglory (Ipomoea hederacea), johnsongrass (Sorghum halepense), ladysthumb smartweed (Polygonum persicaria), lambsquarters (Chenopodium album), large crabgrass (Digitaria sanguinalis), purple nutsedge (Cyperus rotundus), redroot pigweed (Amaranthus retroflexus), soybean (Glycine max), surinam grass (Brachiaria decumbens), velvetleaf (Abutilon theophrasti) and wild poinsettia (Euphorbia heterophylla).
(§4) Treated plants and untreated controls were maintained in a greenhouse for approximately 14, to 21 days, after which all treated plants were compared to untreated controls and visually evaluated. Plant response ratings, summarized in Table C, were based upon a 0 to 100 scale where 0 was no effect and 100 was complete control. A dash response (−) means no test result.

velvetleaf = experiment: Test C postemergence velvetleaf; type: in vivo, Abutilon theophrasti; details: 0 to 100 scale, 0 no effect, 100 complete control
Protocol: as §2, §3, §4

galium [1] = experiment: Test E galium; type: in vivo, Galium aparine; details: Postemergence
How it was run: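 Plants were grown under normal greenhouse practice; for postemergence, in sandy loam soil mixed 60:40 with potting mix, treated at the 1- to 4-leaf stage. The compound was in a non-phytotoxic solvent carrying a surfactant. After roughly 21 to 28 days plants were scored visually against untreated plants.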

Russian thistle = experiment: Test E Russian thistle; type: in vivo, Salsola kali; details: Postemergence
Protocol: […] A mixture of sandy loam soil and greenhouse potting mix in a 60:40 ratio was used for the postemergence test.
Plantings of these crops and weed species were adjusted to produce plants of appropriate size for the postemergence test. All plant species were grown using normal greenhouse practices. Crop and weed species include annual bluegrass (Poa annua), blackgrass (Alopecurus myosuroides), black nightshade (Solanum nigra), chickweed (Stellaria media), common poppy (Papaver rhoeas), deadnettle (Lamium amplexicaule), downy brome (Bromus tectorum), field violet (Viola arvensis), galium (Galium aparine), green foxtail (Setaria viridis), Italian ryegrass (Lolium multiflorum), jointed goatgrass (Aegilops cylindrica), kochia (Kochia scoparia), lambsquarters (Chenopodium album), littleseed canarygrass (Phalaris minor), rape (Brassica napus), redroot pigweed (Amaranthus retroflexus), Russian thistle (Salsola kali), scentless chamomile (Matricaria inodora), spring barley (Hordeum vulgare), sugar beet (Beta vulgaris), sunflower (Helianthus annuus), ivyleaf speedwell (Veronica hederaefolia), spring wheat (Triticum aestivum), winter wheat (Triticum aestivum), wild buckwheat (Polygonum convolvulus), wild mustard (Sinapis arvensis), wild oat (Avena fatua), windgrass (Apera spica-venti) and winter barley (Hordeum vulgare).
Treated plants and untreated controls were maintained in a greenhouse for approximately 21 to 28 days, after which all treated plants were compared to untreated controls and visually evaluated. […] A dash response (-) means no test result.

annual bluegrass = experiment: Test E annual bluegrass; type: in vivo, Poa annua; details: Preemergence
black nightshade = experiment: Test E black nightshade; type: in vivo, Solanum nigra; details: Preemergence
chickweed = experiment: Test E chickweed; type: in vivo, Stellaria media; details: Preemergence
galium [2] = experiment: Test E galium; type: in vivo, Galium aparine; details: Preemergence
rape = experiment: Test E rape; type: in vivo, Brassica napus; details: Preemergence
sugar beet = experiment: Test E sugar beet; type: in vivo, Beta vulgaris; details: Preemergence
crabgrass = experiment: Test A crabgrass; type: in vivo, Digitaria spp.; details: 0 to 10 scale where 0 is no effect and 10 is complete control
Protocol: Seeds of barnyardgrass (Echinochloa crus-galli), crabgrass (Digitaria spp.), morningglory (Ipomoea spp.), and velvetleaf (Abutilon theophrasti) were planted into a sandy loam soil and treated preemergence by soil drench with test chemicals formulated in a non-phytotoxic solvent mixture which includes a surfactant At the same time, these crop and weed species were also treated postemergence sprayed to runoff, with test chemicals formulated in the same manner.
Plants ranged in height from two to eighteen cm and were in the one to two leaf stage for the postemergence treatment. Treated plants and untreated controls were maintained in a greenhouse for approximately eleven days, after which all treated plants were compared to untreated controls and visually evaluated for injury. Plant response ratings, summarized in Table A, are based on a 0 to 10 scale where 0 is no effect and 10 is complete control.

[3] = Rate 250 g/ha, 0 to 100 scale (0 no effect, 100 complete control)
[4] = Rate 62 g/ha, 0 to 100 scale, 0 no effect, 100 complete control
[5] = Rate 125 g/ha, 0 to 100 scale (0 no effect, 100 complete control)
[6] = Rate 500 g/ha, 0 to 100 scale, 0 no effect, 100 complete control
[7] = Rate 500 g/ha, 0 to 100 scale where 0 is no effect and 100 is complete control

CCn1c(=O)on(C(=O)N(c2ccc(F)cc2)C(C)C)c1=O [Compound 107]
75: Plant response rating Arrowleaf sida (arrowleaf sida; Rate 560 g/ha) | Plant response rating, Velvetleaf (velvetleaf; Rate 1120 g/ha)
90: Plant response rating Johnsongrass (johnsongrass; Rate 560 g/ha) | Plant response rating Johnsongrass (johnsongrass; Rate 1120 g/ha)
35: Plant response rating Johnsongrass (johnsongrass; Rate 140 g/ha)
50: Plant response rating E. blacknightsh (eastern black nightshade; Rate 140 g/ha) | Plant response rating E. blacknightsh (eastern black nightshade; Rate 280 g/ha) | Plant response rating Johnsongrass (johnsongrass; Rate 280 g/ha) | Plant response rating, Chickweed (chickweed; [5]) | Plant response rating, Chickweed (chickweed; Rate 250 g/ha, 0 to 100 scale) | Plant response rating, Galium (galium [2]; [4])
100: Plant response rating, Galium (galium [2]; Rate 250 g/ha, 0 to 100 scale) | Plant response rating, Rape (rape; Rate 250 g/ha, 0 to 100 scale) | Plant response rating, Sugar beet (sugar beet; [5]) | Plant response rating, Sugar beet (sugar beet; Rate 250 g/ha, 0 to 100 scale)
45: Plant response rating, Soybean (soybean; Rate 140 g/ha)
85: Plant response rating Arrowleaf sida (arrowleaf sida; Rate 1120 g/ha) | Plant response rating, Soybean (soybean; Rate 560 g/ha) | Plant response rating, Soybean (soybean; Rate 1120 g/ha) | Plant response rating, Annual bluegras (annual bluegrass; Rate 250 g/ha, 0 to 100 scale)
95: Plant response rating E. blacknightsh (eastern black nightshade; Rate 1120 g/ha) | Plant response rating, Blk nightshade (black nightshade; [5]) | Plant response rating, Blk nightshade (black nightshade; Rate 250 g/ha, 0 to 100 scale)
30: Plant response rating Arrowleaf sida (arrowleaf sida; Rate 280 g/ha) | Plant response rating Field bindweed (field bindweed; Rate 560 g/ha) | Plant response rating, Galium (galium [1]; Rate 125 g/ha, 0 to 100 scale) | Plant response rating, Galium (galium [1]; [3])
80: Plant response rating, Annual bluegras (annual bluegrass; [5]) | Plant response rating, Chickweed (chickweed; [4])
5: Plant response rating, Velvetleaf (velvetleaf; Rate 140 g/ha) | Plant response rating, Galium (galium [1]; Rate 62 g/ha, 0 to 100 scale)
70: Plant response rating E. blacknightsh (eastern black nightshade; Rate 560 g/ha) | Plant response rating, Soybean (soybean; Rate 280 g/ha) | Plant response rating, Velvetleaf (velvetleaf; Rate 560 g/ha) | Plant response rating, Annual bluegras (annual bluegrass; [4]) | Plant response rating, Blk nightshade (black nightshade; [4]) | Plant response rating, Galium (galium [2]; [5]) | Plant response rating, Rape (rape; [5]) | Plant response rating, Sugar beet (sugar beet; [4])
0: Plant response rating Field bindweed (field bindweed; Rate 140 g/ha) | Plant response rating Field bindweed (field bindweed; Rate 280 g/ha) | Plant response rating, Russian thistle (Russian thistle; Rate 62 g/ha, 0 to 100 scale) | Plant response rating, Russian thistle (Russian thistle; Rate 125 g/ha, 0 to 100 scale) | Plant response rating, Russian thistle (Russian thistle; [3])
60: Plant response rating Field bindweed (field bindweed; Rate 1120 g/ha) | Plant response rating, Velvetleaf (velvetleaf; Rate 280 g/ha) | Plant response rating, Rape (rape; [4])

CCn1c(=O)on(C(=O)N(c2ccc(F)cc2F)C(C)C)c1=O [Compound 116]
80: Plant response rating Johnsongrass (johnsongrass; Rate 1120 g/ha) | Plant response rating, Velvetleaf (velvetleaf; Rate 1120 g/ha) | Plant response rating, Blk nightshade (black nightshade; [5])
85: Plant response rating Arrowleaf sida (arrowleaf sida; Rate 560 g/ha) | Plant response rating, Annual bluegras (annual bluegrass; Rate 250 g/ha, 0 to 100 scale) | Plant response rating, Sugar beet (sugar beet; Rate 250 g/ha, 0 to 100 scale)
95: Plant response rating, Sugar beet (sugar beet; [7])
0: Plant response rating Arrowleaf sida (arrowleaf sida; Rate 140 g/ha) | Plant response rating E. blacknightsh (eastern black nightshade; Rate 140 g/ha) | Plant response rating E. blacknightsh (eastern black nightshade; Rate 280 g/ha) | Plant response rating Field bindweed (field bindweed; Rate 140 g/ha) | Plant response rating Field bindweed (field bindweed; Rate 280 g/ha) | Plant response rating, Velvetleaf (velvetleaf; Rate 140 g/ha) | Plant response rating, Velvetleaf (velvetleaf; Rate 280 g/ha) | Plant response rating, Russian thistle (Russian thistle; Rate 125 g/ha, 0 to 100 scale) | Plant response rating, Russian thistle (Russian thistle; [3]) | Plant response rating, Russian thistle (Russian thistle; [6])
30: Plant response rating, Soybean (soybean; Rate 560 g/ha) | Plant response rating, Galium (galium [1]; Rate 62 g/ha, 0 to 100 scale)
40: Plant response rating Johnsongrass (johnsongrass; Rate 280 g/ha) | Plant response rating, Soybean (soybean; Rate 1120 g/ha) | Plant response rating, Velvetleaf (velvetleaf; Rate 560 g/ha) | Plant response rating, Galium (galium [1]; Rate 125 g/ha, 0 to 100 scale) | Plant response rating, Galium (galium [1]; [3]) | Plant response rating, Russian thistle (Russian thistle; Rate 62 g/ha, 0 to 100 scale)
10: Plant response rating E. blacknightsh (eastern black nightshade; Rate 560 g/ha) | Plant response rating Johnsongrass (johnsongrass; Rate 140 g/ha) | Plant response rating, Soybean (soybean; Rate 140 g/ha) | Plant response rating, Soybean (soybean; Rate 280 g/ha)
90: Plant response rating Arrowleaf sida (arrowleaf sida; Rate 1120 g/ha) | Plant response rating, Blk nightshade (black nightshade; Rate 250 g/ha, 0 to 100 scale)
70: Plant response rating, Galium (galium [1]; [6])
100: Plant response rating, Annual bluegras (annual bluegrass; [7]) | Plant response rating, Blk nightshade (black nightshade; [7]) | Plant response rating, Chickweed (chickweed; [5]) | Plant response rating, Chickweed (chickweed; Rate 250 g/ha, 0 to 100 scale) | Plant response rating, Chickweed (chickweed; [7]) | Plant response rating, Galium (galium [2]; [5]) | Plant response rating, Galium (galium [2]; Rate 250 g/ha, 0 to 100 scale) | Plant response rating, Galium (galium [2]; [7]) | Plant response rating, Rape (rape; Rate 250 g/ha, 0 to 100 scale) | Plant response rating, Rape (rape; [7])
50: Plant response rating E. blacknightsh (eastern black nightshade; Rate 1120 g/ha) | Plant response rating Field bindweed (field bindweed; Rate 560 g/ha) | Plant response rating Field bindweed (field bindweed; Rate 1120 g/ha) | Plant response rating, Sugar beet (sugar beet; [5])
60: Plant response rating Johnsongrass (johnsongrass; Rate 560 g/ha) | Plant response rating, Annual bluegras (annual bluegrass; [5]) | Plant response rating, Rape (rape; [5])

CCOC(=O)Cn1c(=O)on(C(=O)N(c2ccc(F)cc2)C(C)C)c1=O [Compound 128]
0: Plant response rating, Crabgrass (crabgrass; Postemergence, Rate 1000 g/ha) | Plant response rating, Crabgrass (crabgrass; Pre-emergence, Rate 2000 g/ha)

Cc1ccccc1Cn1c(=O)on(C(=O)N(c2ccc(Cl)cc2)C(C)C)c1=O [Compound 136]
6: Plant response rating, Crabgrass (crabgrass; Postemergence, Rate 1000 g/ha)
10: Plant response rating, Crabgrass (crabgrass; Pre-emergence, Rate 2000 g/ha)
